These are literature values, as cited in patent US20180125800A1, “Stable Formulation for Parenteral Administration of Tapentadol” (Gruenenthal GmbH, priority 2015, published 2018).

The conditions of the data set: more pronounced at higher pH values.

Regarding `CC[C@@H](c1cccc(O)c1)[C@@H](C)CN(C)C` [Tapentadol, (1R,2R)-3-(3-dimethylamino-1-ethyl-2-methyl-propyl)-phenol], the antimicrobial properties entry is given as “exhibits antimicrobial properties”.
